Reference: patent US9750805B2, “Calcium flux agonists and methods therefor” (Nant Holdings IP, LLC, priority 2012, dated 2017)

Legend:
Type in all cases: cell-based, human
[1] = system: TLR (TLR2, TLR4, TLR5, TLR9) and NOD (NOD1, NOD2) family members; test: IL-8 production with TLR and NOD ligands plus suboptimal calcium flux agonist (FIGS. 3A-3E); conditions: suboptimal doses: 20 nM thapsigargin, 316 nM A23187, 1 μM ionomycin, 10 μM cyclopiazonic acid, 31.6 μM DBHQ
Procedure: To investigate if that observation was also true for other pattern recognition receptors, and especially for TLR and NOD receptors and other ligands, the inventors tested numerous TLR and NOD receptors and various ligands.
The doses used in this experiment were 20 nM for thapsigargin, 316 nM for A23187, 1 μM for ionomycin, 10 μM for cyclopiazonic acid, and 31.6 μM for DBHQ.
Thus, a clear pattern of adjuvant activity of calcium flux agonists on the immune response, and especially on IL-8 production and NF-κB signaling is evident where the immune response is associated with a TLR- or NOD-mediated event.

NF-κB THP-1 cells = test: NF-κB luciferase reporter synergy with TLR2 ligand and effect of Ca2+ modulating compounds (FIG. 4); conditions: FIG. 4; calcium flux agonist plus TLR ligand
Procedure: For example, human promonocytic THP-1 cells were incubated in the presence or absence of a suboptimal dose of the TLR2 ligand Pam2CSK4 and compared to similarly treated cells which also received suboptimal doses of ionophore (here: A23187 and ionomycin). […] In another example, NF-κB THP-1 cells (a THP-1-derived transfectant line harboring an NF-κB-driven luciferase expression cassette) were cultivated in the presence or absence of a suboptimal dose of the TLR2 ligand Pam2CSK4 and compared to similarly treated cells that also received suboptimal doses of various SERCA inhibitors.
The inventors further investigated if the nature of calcium flux was of significance as increased intracellular calcium may have different origins. To that effect, the inventors used various calcium signaling modulators to investigate the nature of the calcium flux and contribution. As can be readily taken from the data shown, extracellular calcium flux into the cell was critical for synergistic amplification of calcium signaling. More specifically, FIG. 4 illustrates the effects of different Ca^2+ modulating compounds on synergy with respect to NF-κB activation.

[2] = system: κB-LUC THP-1 reporter cells; test: κB-LUC THP-1 reporter response to S. aureus conditioned/spent media (FIGS. 5B-5E)
From the text: Briefly, a culture of logarithmically dividing S. aureus was washed three times with RPMI 1640 (Cellgro). Concurrently, THP-1 κB-LUC THP-1's (THP-1 cells containing the stable integration of a NF-κB luciferase reporter gene) cultured in RPMI 1640 (Cellgro) supplemented with 10% FBS (Thermo HyClone, Waltham Mass.) and 1% penicillin-streptomycin-fungizone (Thermo HyClone) were washed three times with RPMI 1640 (Cellgro) and transferred to the bottom compartment of a 24-well 0.4 μm cutoff transwell plate (Corning) at a concentration of 1.2 million/mL. Dilutions of the washed S. aureus culture were then added to the top chamber of the transwell system at the indicated initial multiplicities of infection (MOI). The cells were incubated for 18 hours at 37° C. at which time aliquots of 60,000 cells were transferred to wells in a 384-well white bottom plate (Thermo). To evaluate luciferase gene expression, Bright-Glo Luciferase Assay Reagent (Promega) was added to each well and the plates were analyzed for luciferase activity using the Perkin Elmer TopCount NXT system (Perkin Elmer).
To determine whether the recognition of S. aureus-produced products could be further augmented through modulation of calcium flux, κB-LUC THP-1 reporter cells were incubated in the presence of a 1:100 dilution (V/V) of sterile filtered S. aureus conditioned (i.e. spent) or unused sterile media and treated with a suboptimal dose (20 nM) of thapsigargin or dimethyl sulfoxide (DMSO) vehicle control as described above. Briefly, conditioned media was produced by culturing S. aureus in RPMI with 10% fetal bovine serum overnight in a shaking incubator at 37° C. following which the bacteria were pelleted by centrifugation and the supernatants filter-sterilized using a 0.2 μm filter (VWR Radnor PA). The κB-LUC THP-1 cells were incubated in the presence of the conditioned/spent media for 18 hours prior to luciferase assay as described above.

Compound: CC(C)(C)c1cc(O)c(C(C)(C)C)cc1O [DBHQ, 2,5-di-tert-butylhydroquinone]
- effect on IL-8 production with TLR and NOD ligands [1]: synergistic effect

Compound: O=C(O)CN(CCOCCOCCN(CC(=O)O)CC(=O)O)CC(=O)O [EGTA]
- effect of Ca2+ modulating compound on synergy with respect to NF-κB activation (NF-κB THP-1 cells): reduces synergistic signal down to levels in line with what is achieved by TLR ligand alone
- effect on calcium flux-induced synergy [2]: inhibited

Compound: CN([C@@H](Cc1ccc(OS(=O)(=O)c2cccc3cnccc23)cc1)C(=O)N1CCN(c2ccccc2)CC1)S(=O)(=O)c1cccc2cnccc12 [KN-62]
- effect of Ca2+ modulating compound on synergy with respect to NF-κB activation (NF-κB THP-1 cells): does not alter reporter gene expression levels
